Experimental data published in patent US20250170266A1 (ZYMEWORKS BC INC., priority 2022, published 2025).
Like-named read-outs stand apart in the source and are kept apart here.

Key:
Type in all cases: cell-based
[1] = molecular target: T1, hTLR7 (Homo sapiens, UniProt Q9NYK1); assay: Reporter Gene Assay (RGA), HEK-Blue hTLR7 reporter cells, SEAP readout; settings: overnight incubation, SEAP absorbance 620 nm
T1 construct: host or cells: HEK-Blue hTLR7 reporter cells (HEK293-derived, own knowledge)
T1 sequence (Q9NYK1 27-1049): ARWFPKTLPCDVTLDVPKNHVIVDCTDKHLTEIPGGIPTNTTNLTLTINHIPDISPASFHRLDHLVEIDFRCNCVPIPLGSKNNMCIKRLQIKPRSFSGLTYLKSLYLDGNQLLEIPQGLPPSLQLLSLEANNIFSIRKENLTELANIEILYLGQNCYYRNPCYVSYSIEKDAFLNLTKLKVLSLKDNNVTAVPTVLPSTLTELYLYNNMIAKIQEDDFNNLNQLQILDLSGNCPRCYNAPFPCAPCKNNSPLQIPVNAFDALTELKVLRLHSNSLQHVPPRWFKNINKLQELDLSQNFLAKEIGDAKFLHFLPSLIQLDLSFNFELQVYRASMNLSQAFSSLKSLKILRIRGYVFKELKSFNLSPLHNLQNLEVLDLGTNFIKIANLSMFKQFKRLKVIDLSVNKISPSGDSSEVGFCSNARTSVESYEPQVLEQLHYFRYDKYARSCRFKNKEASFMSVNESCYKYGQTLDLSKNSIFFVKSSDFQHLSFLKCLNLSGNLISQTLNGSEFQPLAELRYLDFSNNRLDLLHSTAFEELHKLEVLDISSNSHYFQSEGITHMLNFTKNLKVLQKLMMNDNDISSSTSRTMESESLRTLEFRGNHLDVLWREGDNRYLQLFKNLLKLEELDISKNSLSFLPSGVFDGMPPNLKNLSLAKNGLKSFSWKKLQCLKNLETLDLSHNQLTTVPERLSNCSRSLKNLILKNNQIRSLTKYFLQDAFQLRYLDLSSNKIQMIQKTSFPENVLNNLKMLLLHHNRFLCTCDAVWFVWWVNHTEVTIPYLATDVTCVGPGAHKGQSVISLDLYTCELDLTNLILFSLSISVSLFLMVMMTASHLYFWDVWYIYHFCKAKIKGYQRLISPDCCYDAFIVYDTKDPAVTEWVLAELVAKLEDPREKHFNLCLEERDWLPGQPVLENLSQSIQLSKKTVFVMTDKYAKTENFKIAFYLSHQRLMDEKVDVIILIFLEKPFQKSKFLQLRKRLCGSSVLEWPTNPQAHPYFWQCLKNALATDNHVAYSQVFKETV
Method in brief: (§1)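 HEK-Blue reporter cells expressing human or mouse TLR7 (1.5×10^4 cells) were treated with an 11-point, 4-fold compound titration from 15 pM in HEK-Blue Detection medium. Incubation was overnight at 37° C with 5% CO2. Secreted embryonic alkaline phosphatase was read as absorbance at 620 nm.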

[2] = molecular target: T2, mTLR7 (Mus musculus, UniProt P58681); assay: Reporter Gene Assay (RGA), HEK-Blue mTLR7 reporter cells, SEAP readout; settings: overnight incubation, SEAP absorbance 620 nm
T2 construct: host or cells: HEK-Blue mTLR7 reporter cells (HEK293-derived, own knowledge)
T2 sequence (P58681 27-1050): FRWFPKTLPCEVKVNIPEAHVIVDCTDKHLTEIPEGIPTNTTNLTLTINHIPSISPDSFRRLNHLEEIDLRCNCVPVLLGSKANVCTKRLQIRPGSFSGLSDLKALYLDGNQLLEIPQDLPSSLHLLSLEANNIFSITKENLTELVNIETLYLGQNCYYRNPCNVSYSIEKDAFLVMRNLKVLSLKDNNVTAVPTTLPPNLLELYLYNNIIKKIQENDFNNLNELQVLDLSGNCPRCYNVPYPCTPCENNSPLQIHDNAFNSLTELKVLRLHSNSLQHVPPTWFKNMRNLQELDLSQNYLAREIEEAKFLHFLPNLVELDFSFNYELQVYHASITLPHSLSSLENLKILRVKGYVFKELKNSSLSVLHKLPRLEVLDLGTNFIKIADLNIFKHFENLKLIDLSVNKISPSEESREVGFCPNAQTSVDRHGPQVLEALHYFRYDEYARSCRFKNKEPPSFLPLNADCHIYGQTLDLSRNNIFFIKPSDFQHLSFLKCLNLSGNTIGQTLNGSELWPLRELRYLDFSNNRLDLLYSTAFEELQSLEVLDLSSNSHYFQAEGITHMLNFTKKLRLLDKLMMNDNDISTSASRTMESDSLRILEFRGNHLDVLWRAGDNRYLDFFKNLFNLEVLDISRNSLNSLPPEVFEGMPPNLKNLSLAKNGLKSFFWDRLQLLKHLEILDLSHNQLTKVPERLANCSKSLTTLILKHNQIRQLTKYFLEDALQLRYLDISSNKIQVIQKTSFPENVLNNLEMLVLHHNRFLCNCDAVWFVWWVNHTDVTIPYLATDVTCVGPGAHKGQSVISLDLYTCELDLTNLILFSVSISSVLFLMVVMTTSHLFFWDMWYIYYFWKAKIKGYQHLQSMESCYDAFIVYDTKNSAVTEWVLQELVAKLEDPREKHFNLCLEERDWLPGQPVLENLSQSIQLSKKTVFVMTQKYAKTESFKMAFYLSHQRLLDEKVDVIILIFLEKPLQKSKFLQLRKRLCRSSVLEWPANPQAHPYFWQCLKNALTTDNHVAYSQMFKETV
Method in brief: as §1

[3] = test system: Human peripheral blood mononuclear cells (PBMCs); assay: Human PBMC Assay, cytokine release (HTRF); settings: 24 hours; for EC50: PBMC
Method in brief: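 Cryopreserved human PBMCs, rested overnight with 10 ng/ml hIL3, then 300,000 cells/well treated 24 h at 37° C with compound (4-fold, 11-point titration from 15 μM) in RPMI+10% FBS. Supernatant hIL6, hTNFα and hIFNα measured by HTRF; growth medium as negative control.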

[4] = test system: Mouse splenocytes; assay: Mouse Splenocyte Assay, cytokine release (HTRF); settings: 24 hours, mIL6 in supernatant; for EC50: Splenocyte, read-out: Splenocyte IL6 EC50
Method in brief: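 Splenocytes from female balb/c nude mice, thawed, 100,000 per well in RPMI + 10% FBS. Exposed for 24 h at 37 °C to a 4-fold 11-point compound titration from 15 μM; supernatant mIL6 and mTNFα measured by HTRF.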

[5] = hIFNα in supernatant, EC50 values approximated and divided into groups, read-out: PBMC IFNa EC50
[6] = hIL6 in supernatant, read-out: PBMC IL6 EC50

Row | Compound | EC50 [1] | EC50 [2] | EC50 [3, 5] | EC50 [3, 6] | EC50 [4] | Splenocyte IL6 EC50 (nM) [4] | PBMC IL6 EC50 (nM) ([3]; hIL6 in supernatant)
1 | CCOc1nc(N)c2nc(O)n(Cc3ccc(CN[C@@H](CO)C(=O)O)cc3OC)c2n1 [Compound 119, (4-((6-amino-2-ethoxy-8-hydroxy-9H-purin-9-yl)methyl)-3-methoxybenzyl)-L-serine] | 259 nM | 1960 nM | > 10 nM | 3910 nM | ≥ 1000 nM | – | –
2 | CCOc1nc(N)c2nc(O)n(Cc3ccc(CNCCCCN)cc3OC)c2n1 [Compound 106, 6-amino-9-(4-(((4-aminobutyl)amino)methyl)-2-methoxybenzyl)-2-ethoxy-9H-purin-8-ol] | 348 nM | 94.1 nM | 1 to 10 nM | 688 nM | 2060 nM | – | –
3 | CCCCCNc1nc(N)c2nc(O)n(Cc3ccc(CNCCN)cc3)c2n1 [Compound 189, 6-amino-9-(4-(((2-aminoethyl)amino)methyl)benzyl)-2-(pentylamino)-9H-purin-8-ol] | 698 nM | 41 nM | 1 to 10 nM | 151 nM | 80.6 nM | – | –
4 | CCOc1nc(N)c2nc(O)n(Cc3ccc(CNC4CC(F)(F)C4)cc3OC)c2n1 [Compound 109, 6-amino-9-(4-(((3,3-difluorocyclobutyl)amino)methyl)-2-methoxybenzyl)-2-ethoxy-9H-purin-8-ol] | 56 nM | 13.1 nM | 1 to 10 nM | 456 nM | 166 nM | – | –
5 | CCOc1nc(N)c2nc(O)n(Cc3ccc(CN4CCNCC4)cc3F)c2n1 [Compound 152, 6-amino-2-ethoxy-9-(2-fluoro-4-(piperazin-1-ylmethyl)benzyl)-9H-purin-8-ol] | 1.3 nM | 31.7 nM | 0.1 to 1 nM | 17 nM | – | inactive | –
6 | CCOc1nc(N)c2nc(O)n(Cc3ccc(CNCc4ccc(CNCc5ccc(CN)cc5)cc4)cc3OC)c2n1 [Compound 146, 6-amino-9-(4-(((4-(((4-(aminomethyl)benzyl)amino)methyl)benzyl)amino)-methyl)-2-methoxybenzyl)-2-ethoxy-9H-purin-8-ol] | 5.8 nM | 28.7 nM | < 0.1 nM | 16.7 nM | 12.9 nM | – | –
7 | CCCCOc1nc(N)c2nc(O)n(Cc3ccc(CCN4CCNCC4)cc3OC)c2n1 [Compound 180, 6-amino-2-butoxy-9-(2-methoxy-4-(2-(piperazin-1-yl)ethyl)benzyl)-9H-purin-8-ol] | 34 nM | 79.9 nM | > 10 nM | – | 873 nM | – | inactive
8 | CCOc1nc(N)c2nc(O)n(Cc3ccc(CN4CCC(CCN)CC4)cc3OC)c2n1 [Compound 140, 6-amino-9-(4-((4-(2-aminoethyl)piperidin-1-yl)methyl)-2-methoxybenzyl)-2-ethoxy-9H-purin-8-ol] | 6.8 nM | 34.8 nM | > 10 nM | 53.6 nM | 180 nM | – | –
9 | CCOc1nc(N)c2nc(O)n(Cc3ccc(CN[C@H](CO)Cc4ccccc4)cc3OC)c2n1 [Compound 118, (S)-6-amino-2-ethoxy-9-(4-(((1-hydroxy-3-phenylpropan-2-yl)amino)methyl)-2-methoxybenzyl)-9H-purin-8-ol] | 2.04 nM | 11.4 nM | 0.1 to 1 nM | 1400 nM | 639 nM | – | –
10 | CCCCOc1nc(N)c2nc(O)n(Cc3ccc(CNCCCCN)cc3OC)c2n1 [Compound 160, 6-amino-9-(4-(((4-aminobutyl)amino)methyl)-2-methoxybenzyl)-2-butoxy-9H-purin-8-ol] | 7.2 nM | 10 nM | < 0.1 nM | 1080 nM | 6.6 nM | – | –
11 | CCCCOc1nc(N)c2nc(O)n(Cc3ccc(CN4CCC(N)CC4)cc3OC)c2n1 [Compound 155, 6-amino-9-(4-((4-aminopiperidin-1-yl)methyl)-2-methoxybenzyl)-2-butoxy-9H-purin-8-ol] | 0.2 nM | 9.2 nM | > 10 nM | 878 nM | 148 nM | – | –
12 | CCCCOc1nc(N)c2nc(O)n(Cc3ccc(N4CCNCC4)cc3OC)c2n1 [Compound 169, 6-amino-2-butoxy-9-(2-methoxy-4-(piperazin-1-yl)benzyl)-9H-purin-8-ol] | 1.1 nM | 3 nM | 1 to 10 nM | – | 23.2 nM | – | –
13 | CCCCOc1nc(N)c2nc(O)n(Cc3ccc(CNC4CCC4)cc3OC)c2n1 [Compound 164, 6-amino-2-butoxy-9-(4-((cyclobutylamino)methyl)-2-methoxybenzyl)-9H-purin-8-ol] | < 0.1 nM | < 0.1 nM | < 0.1 nM | 2540 nM | 0.3 nM | – | –
14 | CCOc1nc(N)c2nc(O)n(Cc3ccc(CNCc4ccc(CN5CCC(NC(=O)OC(C)(C)C)CC5)cc4)cc3OC)c2n1 [Compound 143, tert-butyl-(1-(4-(((4-((6-amino-2-ethoxy-8-hydroxy-9H-purin-9-yl)methyl)-3-methoxybenzyl)amino)methyl)benzyl)piperidin-4-yl)carbamate] | 0.2 nM | 15.1 nM | < 0.1 nM | 27.1 nM | 9.6 nM | – | –
15 | CCOc1nc(N)c2nc(O)n(Cc3ccc(CN4C[C@@H]5C[C@H]4CN5)cc3OC)c2n1 [Compound 128, 9-(4-(((1S,4S)-2,5-diazabicyclo[2.2.1]heptan-2-yl)methyl)-2-methoxybenzyl)-6-amino-2-ethoxy-9H-purin-8-ol] | 18.2 nM | 443 nM | 1 to 10 nM | 167 nM | – | inactive | –
16 | CCCCCNc1nc(N)c2nc(O)n(Cc3ccc(CNC4CC(F)(F)C4)cc3)c2n1 [Compound 186, 6-amino-9-(4-(((3,3-difluorocyclobutyl)amino)methyl)benzyl)-2-(pentyl-amino)-9H-purin-8-ol] | 452 nM | 11.1 nM | > 10 nM | – | – | inactive | inactive
